Test [1] concerns models of Alzheimer's Disease. To be noted: cited from earlier work.
The target in test [2] is T1, ALXR (Homo sapiens, UniProt P25090).
T1 sequence (P25090 1-351): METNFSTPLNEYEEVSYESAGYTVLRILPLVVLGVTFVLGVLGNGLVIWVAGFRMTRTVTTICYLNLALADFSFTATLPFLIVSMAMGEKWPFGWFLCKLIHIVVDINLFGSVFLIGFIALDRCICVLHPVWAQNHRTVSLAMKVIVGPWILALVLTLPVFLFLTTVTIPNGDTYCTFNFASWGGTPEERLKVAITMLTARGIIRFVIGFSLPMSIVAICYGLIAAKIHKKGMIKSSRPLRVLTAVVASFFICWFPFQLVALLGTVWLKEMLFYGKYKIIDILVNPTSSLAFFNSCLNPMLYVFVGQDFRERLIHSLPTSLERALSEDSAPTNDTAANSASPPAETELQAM
To be noted: cited from earlier work.

Test [3] deals with human fibroblast-like synoviocytes. To be noted: cited from earlier work.
In test [4] the test system is dry corneal surface. Conditions: topical treatment; cited from earlier work.
The test system of test [5] is collagen-induced arthritis. To be noted: in vivo; cited from earlier work.
Test [6] has as its target T2, recombinant human ALX receptor (Homo sapiens, UniProt P25090).
T2 construct: expressed in transfected cells; host or cells: HEK293 (HEK293-hALXR-Gα16)
T2 sequence (P25090 1-351): T1 sequence (P25090 1-351)
Description: Intracellular calcium measurements (FLIPR), ALX receptor agonistic activity. Type of test: cell-based. To be noted: HEK293-hALXR-Gα16 cells, Fluo-4 calcium signal, normalized to WKYMVm 10 nM. In a few lines: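 Agonist-induced calcium flux was read by FLIPR (488/540 nm) as baseline-subtracted peak emission, expressed relative to WKYMVm at 10 nM final. Cells used: HEK293-hALXR-Gα16, dye-loaded 60 min at 37° C. with 1 μM Fluo-4 AM before compound dose-response addition.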

pEC50: −log10 of the molar value.

On to “humanin: high-affinity ligand for FPR2, neuroprotective in models of Alzheimer's Disease (MAPRGFSCLLLLTSEIDLPVKRRA; Humanin; UniProt Q8IVG9 1-24, looked up)”, for which the neuroprotection result in test [1] is “neuroprotective”. Take `CCCCC[C@H](O)/C=C/C=C\C=C\C=C\[C@@H](O)[C@@H](O)CCCC(=O)O` [Lipoxin A4, lipoxin A4]: the “binding to ALXR” value in test [2] is “high affinity”. Besides, in test [3], the IL-6 expression result was “inhibited IL-6 expression”. For the same compound, the “re-epithelization and inflammation of the dry corneal surface” value in test [4] is “increases re-epithelization and decreases inflammation of the dry corneal surface”.

Regarding `COC(=O)CCC[C@H](O)[C@H](O)CO` [BML-111], the “severity of collagen-induced arthritis” value in test [5] is “reduced the severity of collagen-induced arthritis”. Usually pEC50 stands for the negative decadic logarithm of the EC50, by convention in mol/L. For the compound `COc1ccc(C[C@@H](NC(=O)N[C@H]2CC[C@H](O)CC2)c2nc3cc(C)ccc3[nH]2)cc1` [Example 83, 1-(trans-4-Hydroxycyclohexyl)-3-((R)-2-(4-methoxyphenyl)-1-(5-methyl-1H-benzo[d]imidazol-2-yl)ethyl)urea], the pEC50 in test [6] was 8.77.

Regarding `COc1ccc(C[C@@H](NC(=O)N2CC3CC2CN3)c2nc3ccccc3[nH]2)cc1` (stereo partly drawn) [Example 129, N—((R)-1-(1H-Benzo[d]imidazol-2-yl)-2-(4-methoxyphenyl)ethyl)-2,5-diazabicyclo[2.2.1]heptane-2-carboxamide], the pEC50 in test [6] is 6.55. Still for that read-out and setting: for `COc1ccc(CCNC(=O)NC(Cc2ccc(OC)cc2)c2nc3ccccc3[nH]2)cc1` (centres unmarked) [Example 53, 1-(1-(1H-Benzo[d]imidazol-2-yl)-2-(4-methoxyphenyl)ethyl)-3-(4-methoxyphenethyl)urea] the value was 6.27; for `COc1ccc(CC(NC(=O)NC23CCC(O)(CC2)CC3)c2nc3ccccc3[nH]2)c(F)c1F` (single isomer, unassigned; ent-1) [Example 266, 1-(1-(1H-Benzo[d]imidazol-2-yl)-2-(2,3-difluoro-4-methoxyphenyl)ethyl)-3-(4-hydroxybicyclo[2.2.2]octan-1-yl)urea (ent-1)], 8.48.

As for `COc1ccc(C[C@@H](NC(=O)N[C@H]2CC[C@H](O)CC2)c2nc3cc(F)ccc3[nH]2)cc1` [Example 85, 1-((R)-1-(5-Fluoro-1H-benzo[d]imidazol-2-yl)-2-(4-methoxyphenyl)ethyl)-3-(trans-4-hydroxycyclohexyl)urea], the pEC50 in test [6] is 8.80. Regarding `COc1ccc(C[C@@H](NC(=O)NCc2cccnc2N2CCOCC2)c2nc3ccccc3[nH]2)cc1` [Example 206, (R)-1-(1-(1H-Benzo[d]imidazol-2-yl)-2-(4-methoxyphenyl)ethyl)-3-((2-morpholinopyridin-3-yl)methyl)urea], in test [6], the pEC50 is 6.84. The same measure, in the same setting: for `COc1ccc(C[C@@H](NC(=O)N[C@@H]2CCc3ccccc32)c2nc3ccccc3[nH]2)cc1` [Example 334, 1-((R)-1-(1H-Benzo[d]imidazol-2-yl)-2-(4-methoxyphenyl)ethyl)-3-((R)-2,3-dihydro-1H-inden-1-yl)urea] the value was 6.95. Same read-out and setting: under `COc1cc(F)c(CC(NC(=O)NC23CCC(O)(CC2)CC3)c2nc3ccccc3[nH]2)c(F)c1` (single isomer, unassigned; ent-1) [Example 259, 1-(1-(1H-Benzo[d]imidazol-2-yl)-2-(2,6-difluoro-4-methoxyphenyl)ethyl)-3-(4-hydroxybicyclo[2.2.2]octan-1-yl)urea (ent-1)] stands 9.30. Still for that read-out and setting: under `COc1ccc(CC(NC(=O)Nc2ccnn2-c2ccc(F)cc2)c2nc3ccccc3[nH]2)cc1` (centres unmarked) [Example 410, 1-(1-(1H-benzo[d]imidazol-2-yl)-2-(4-methoxyphenyl)ethyl)-3-(1-(4-fluorophenyl)-1H-pyrazol-5-yl)urea] stands 7.35; under `C[C@]1(O)CC[C@H](NC(=O)NC(Cc2ccc(C(F)(F)F)c(F)c2)c2nc3ccccc3[nH]2)CC1` (mixture of isomers) [Example 239, 1-(1-(1H-Benzo[d]imidazol-2-yl)-2-(3-fluoro-4-(trifluoromethyl)phenyl)ethyl)-3-(trans-4-hydroxy-4-methylcyclohexyl)urea], 7.11; under `CC(F)(F)c1ccc(CC(NC(=O)N[C@H]2CC[C@H](O)CC2)c2nc3ccccc3[nH]2)cc1` (single isomer, unassigned; ent-1) [Example 394, 1-(1-(1H-Benzo[d]imidazol-2-yl)-2-(4-(1,1-difluoroethyl)phenyl)ethyl)-3-(trans-4-hydroxycyclohexyl)urea (ent-1)], 8.33.

Turning to `COc1ccc(C[C@@H](NC(=O)N[C@@H]2CCNC2)c2nc3ccccc3[nH]2)cc1` [Example 125, 1-((R)-1-(1H-Benzo[d]imidazol-2-yl)-2-(4-methoxyphenyl)ethyl)-3-((R)-pyrrolidin-3-yl)urea], the pEC50 in test [6] was 7.09.

(Values after US9663473B2 (Actelion Pharmaceuticals Ltd, priority 2013, dated 2017).)
